Values of other authors as cited in PubChem BioAssay AID1259410 (Chemical Carcinogenesis Research Information System (CCRIS), 2018).

Test system: rodent tumor promotion studies, tumor incidence
Assay: CCRIS tumor promotion studies

In the case of `CC(C)(C)CC(C)(C)c1ccc(O)cc1`, the outcome (Carcinogen: N-ETHYL-N'-NITRO-N-NITROSOGUANIDINE, 4245-77-6, Doses [Carcinogen]: 20 MG/KG BW ONCE AT 3 MO OF AGE, Doses [Promoter]: 100 MG/KG BW IN DMSO BEGINNING AT 3 MO OF AGE, 5X/WK FOR FIRST 2 WK, 3X/WK FOR NEXT 11 WK, 2X/WK FOR STUDY DURATION (STU, Route [Carcinogen]: INTRAUTERINE, Route [Promoter]: SUBCUTANEOUS, Species: RAT, Strain/Sex: DONRYU/FEMALE) is given as “uterus: adenocarcinoma”, the outcome (Doses [Carcinogen]: 20 MG/KG ONCE AT 11 WK OF AGE, Doses [Promoter]: 0, 100 MG/KG/D IN DMSO, EVERY OTHER DAY POSTNATAL DAYS 1 THROUGH 5 (STUDY DURATION: 15 MO), Route [Carcinogen]: INTRAUTERINE, Route [Promoter]: SUBCUTANEOUS, Species: RAT, Strain/Sex: DONRYU/FEMALE) is given as “uterus: adenocarcinoma” and the outcome (Doses [Carcinogen]: 20 MG/KG ONCE AT 11 WK OF AGE, Doses [Promoter]: 0, 100 MG/KG/D IN DMSO, EVERY OTHER DAY POSTNATAL DAYS 1 THROUGH 15 (STUDY DURATION: 15 MO), Route [Carcinogen]: INTRAUTERINE, Route [Promoter]: SUBCUTANEOUS, Species: RAT, Strain/Sex: DONRYU/FEMALE) is given as “uterus: adenocarcinoma”.

In the case of `CCCCCCCCCCCCCCCCCCCC`, the outcome (Carcinogen: 7,12-DIMETHYLBENZ(A)ANTHRACENE, Doses [Carcinogen]: TOP, Route [Carcinogen]: DERMAL, Route [Promoter]: DERMAL, Species: MOUSE, Strain/Sex: MALE,FEMALE) is given as “integumentary system (skin)”.

For `O=S1(=O)N=C(O)c2ccccc21`, the outcome (Carcinogen: N-[4-(5-NITRO-2-FURYL)-2-THIAZOLYL]FORMAMIDE, 24554-26-5, Doses [Carcinogen]: 0.2% IN DIET FOR 6 WK, Doses [Promoter]: 0, 3.12% IN PROLAB DIET FOR 72 WK BEGINNING POST CARCINOGEN TREATMENT (STUDY DURATION: 78 WK), Route [Carcinogen]: ORAL, Route [Promoter]: ORAL, Species: RAT, Strain/Sex: F344/MALE) is listed as “urinary bladder: carcinoma” and the outcome (Carcinogen: N-[4-(5-NITRO-2-FURYL)-2-THIAZOLYL]FORMAMIDE, 24554-26-5, Doses [Carcinogen]: 0.2% IN DIET FOR 6 WK, Doses [Promoter]: 0, 5.2% IN PROLAB DIET FOR 72 WK BEGINNING POST CARCINOGEN TREATMENT (STUDY DURATION: 78 WK), Route [Carcinogen]: ORAL, Route [Promoter]: ORAL, Species: RAT, Strain/Sex: F344/MALE) is listed as “urinary bladder: carcinoma, carcinoma or papilloma”.

In the case of `Nc1nc2ncc(CNc3ccc(C(=O)N[C@@H](CCC(=O)O)C(=O)O)cc3)nc2c(=O)[nH]1`, the outcome (Carcinogen: N-ETHYL-N-(2-HYDROXYETHYL)NITROSAMINE, Doses [Carcinogen]: 0.1% IN DRINKING WATER FOR 1 WK, Doses [Promoter]: 300 MG/KG 1/WK FOR 8 WK THEN 100 MG/KG 1/WK FOR 27 WK, Route [Carcinogen]: ORAL, Route [Promoter]: SUBCUTANEOUS, Species: RAT, Strain/Sex: F344/MALE) is listed as “kidney: renal cell tumor”.

In the case of `C=C(C)[C@@]12OC3(c4ccccc4)O[C@@H]1[C@@H]1[C@@H]4OC4(CO)[C@@H](O)[C@]4(O)C(=O)C(C)=C[C@H]4[C@@]1(O3)[C@H](C)[C@H]2OC(=O)/C=C/C=C/c1ccccc1` (some centres undefined), the outcome (Carcinogen: 7,12-DIMETHYLBENZ[A]ANTHRACENE, 57-97-6, Doses [Carcinogen]: 10 NMOL APPLIED TO BACK ONCE, Doses [Promoter]: 9 NMOL 2/WK FOR 19 WK BEGINNING 1 WK POST CARCINOGEN DOSE (STUDY DURATION: 40 WK), Route [Carcinogen]: DERMAL, Route [Promoter]: DERMAL, Species: MOUSE, Strain/Sex: HRA/SKH/FEMALE) is given as “skin: papilloma”.

For `C=Cc1c(C)c2[n-]c1=CC1=NC(=CC3=C(C)C(=C([O-])[O-])C(=N3)C(CC(=O)[O-])=C3N=C(C=2)C(C)C3CCC(=O)[O-])C(CC)=C1C.[Cu+2].[Na+].[Na+].[Na+]` (centres undefined), the outcome (Carcinogen: 1,2-DIMETHYLHYDRAZINE, 540-73-8, Doses [Carcinogen]: 20 MG/KG/BW 1/WK FOR 5 WK, Doses [Promoter]: 0, 1.5 MILLIMOLAR IN DRINKING WATER BEGINNING POST CARCINOGEN TREATMENT AND CONTINUING FOR DURATION OF STUDY (STUDY DURA, Route [Carcinogen]: INTRAPERITONEAL, Route [Promoter]: ORAL, Species: RAT, Strain/Sex: F344/MALE) is listed as “colorectal: tumor” and the outcome (Carcinogen: 1,2-DIMETHYLHYDRAZINE, 540-73-8, Doses [Carcinogen]: 20 MG/KG/BW 1/WK FOR 5 WK, Doses [Promoter]: 0, 1.5 MILLIMOLAR IN DRINKING WATER THROUGHOUT THE STUDY (STUDY DURATION: 25 WK), Route [Carcinogen]: INTRAPERITONEAL, Route [Promoter]: ORAL, Species: RAT, Strain/Sex: F344/MALE) is listed as “colorectal: tumor”.

For `OC[C@H]1O[C@@H]2O[C@H]3[C@H](O)[C@@H](O)[C@@H](O[C@H]4[C@H](O)[C@@H](O)[C@@H](O[C@H]5[C@H](O)[C@@H](O)[C@@H](O[C@H]6[C@H](O)[C@@H](O)[C@@H](O[C@H]7[C@H](O)[C@@H](O)[C@@H](O[C@H]8[C@H](O)[C@@H](O)[C@@H](O[C@H]1[C@H](O)[C@H]2O)O[C@@H]8CO)O[C@@H]7CO)O[C@@H]6CO)O[C@@H]5CO)O[C@@H]4CO)O[C@@H]3CO`, the outcome (Carcinogen: N-ETHYL-N-(2-HYDROXYETHYL)NITROSAMINE, Doses [Carcinogen]: 500, 1000 PPM IN DIET FOR TWO WK, Doses [Promoter]: 450 MG/KG 1/D FOR 7 D AFTER INITIATION FOR 2 WK, Route [Carcinogen]: ORAL, Route [Promoter]: SUBCUTANEOUS, Species: RAT, Strain/Sex: WISTAR/MALE) is given as “kidney: tubular cell tumor”.

In the case of `Cc1cc(O)c2c(c1)Cc1cccc(O)c1C2=O`, the outcome (Carcinogen: 7,12-DIMETHYLBENZ(A)ANTHRACENE, Doses [Carcinogen]: 10 NMOL ONCE, Doses [Promoter]: 50 UG 2/WK FOR 21 WK, Route [Carcinogen]: DERMAL, Route [Promoter]: DERMAL, Species: MOUSE, Strain/Sex: SENCAR/FEMALE) is listed as “integumentary system (skin): papilloma” and the outcome (Carcinogen: 7,12-DIMETHYLBENZ[A]ANTHRACENE, 57-97-6, Doses [Carcinogen]: 6.4 UG ONCE, Doses [Promoter]: 0, 52.8 UG 1/WK FOR 10 WK BEGINNING 2 WK POST CARCINOGEN DOSE (STUDY DURATION: 32 WK), Route [Carcinogen]: DERMAL, Route [Promoter]: DERMAL, Species: MOUSE, Strain/Sex: SENCAR/FEMALE) is listed as “skin: papilloma”.

In the case of `S=c1nc[nH]c2nc[nH]c12`, the outcome (Carcinogen: UV IRRADIATION, Doses [Carcinogen]: 0.53 J/CM2 INCREASED BY 20% EVERY 2 WK TO 1.60 J/CM2 AND MAINTAINED AT 1.60 J/CM2 UNTIL DEATH, ADMINISTERED 5 D/WK FOR 1, Doses [Promoter]: 0, 15 UG/G BEGINNING 2 WK POST FIRST CARCINOGEN DOSE ADMINISTERED 2 HR PRIOR TO EACH CARCINOGEN DOSE (STUDY DURATION: 30, Route [Carcinogen]: DERMAL, Route [Promoter]: INTRAPERITONEAL, Species: MOUSE, Strain/Sex: SKH/HRL/FEMALE) is listed as “skin: tumor”.
